Reference: US20220347188A1, “PROMOTING TISSUE REGENERATION” (FRIEDRICH MIESCHER INSITUTE FOR BIOMEDICAL RESEARCH, priority 2019, published 2022)

System: intestinal organoids
Test: intestinal organoids cultured from single cells, image-based phenotypic assay
Type: cell-based
Text: The present inventors developed a novel image-based phenotypic screening platform in intestinal organoids cultured from single cells to generate a toolbox of compounds shaping the intestinal organoid phenotypic landscape. The compounds were used to infer functional genetic interactions and identify pathways impacting different steps of organoid development. The inventors focused on compounds that improve the regeneration potential of the intestinal epithelium and discovered a novel role for nuclear retinoic acid receptors during organoid damage response and homeostasis both in vitro and in vivo.
FIG. 1 RXR activity is indispensable for symmetry breaking and cell type balance maintenance Representative images of organoids cultured from single cells in indicated treatment conditions (left), composite maximum intensity projections of confocal z-stacks, nuclei, DAPI, antibody staining for Lysozyme and Aldolase B, scale bar, 50 μm. Violin plots showing distribution of mean Aldolase B staining intensity in control and treated organoids (top right). Box plots inside violin plots show quartile range, whiskers show value interval with excluded outliers, white dots indicate median values, n, number of individual organoids in respective conditions. DMSO, DMSO control, RXRi, 5 μM RXR antagonist. […]

SMILES: CC1=C(/C=C/C(C)=C/C=C/C(C)=C/C(=O)O)C(C)(C)CCC1 [atRA, all-trans retinoic acid]
- ALDH1A1-positive as well as RARE-positive region (ALDH1A1 antibody staining and RARE reporter gene): expansion
- absorptive enterocytes in organoids (organoids cultured in presence of an RXR agonist and atRA): increase in absorptive enterocytes
